Assay results taken from ChEMBL document CHEMBL3991601, “The target landscape of clinical kinase drugs” (Science, 2017).
The source made the active and inactive calls. Rule as the data show it, for most assays here: actives have a measured Kd and inactives only a lower limit.

Tests used:
Glycine--tRNA ligase = molecular target: T1, Glycine--tRNA ligase (Homo sapiens, UniProt P41250)
T1 sequence (P41250 whole entry): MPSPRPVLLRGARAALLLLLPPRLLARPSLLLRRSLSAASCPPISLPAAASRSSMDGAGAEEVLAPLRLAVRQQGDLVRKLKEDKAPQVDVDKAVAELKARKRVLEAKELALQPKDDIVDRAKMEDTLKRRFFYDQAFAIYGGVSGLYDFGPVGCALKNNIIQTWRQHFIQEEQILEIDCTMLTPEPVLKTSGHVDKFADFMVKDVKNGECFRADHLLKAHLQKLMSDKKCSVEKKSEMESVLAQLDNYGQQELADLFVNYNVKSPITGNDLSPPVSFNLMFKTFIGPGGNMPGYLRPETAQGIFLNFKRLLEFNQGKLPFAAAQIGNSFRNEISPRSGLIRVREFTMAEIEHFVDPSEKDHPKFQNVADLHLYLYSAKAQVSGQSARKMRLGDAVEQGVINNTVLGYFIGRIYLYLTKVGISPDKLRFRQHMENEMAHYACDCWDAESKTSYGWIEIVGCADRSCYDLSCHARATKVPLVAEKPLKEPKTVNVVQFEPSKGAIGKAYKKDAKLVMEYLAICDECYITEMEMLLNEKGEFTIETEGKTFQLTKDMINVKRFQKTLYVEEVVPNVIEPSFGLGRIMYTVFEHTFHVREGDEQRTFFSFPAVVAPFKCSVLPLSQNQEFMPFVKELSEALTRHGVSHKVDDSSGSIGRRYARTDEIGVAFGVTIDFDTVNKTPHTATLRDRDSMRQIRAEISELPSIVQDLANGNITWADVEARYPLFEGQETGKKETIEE

Insulin receptor = Insulin receptor (Homo sapiens, UniProt P06213)
Sequence of Insulin receptor (P06213 28-758 limits assumed): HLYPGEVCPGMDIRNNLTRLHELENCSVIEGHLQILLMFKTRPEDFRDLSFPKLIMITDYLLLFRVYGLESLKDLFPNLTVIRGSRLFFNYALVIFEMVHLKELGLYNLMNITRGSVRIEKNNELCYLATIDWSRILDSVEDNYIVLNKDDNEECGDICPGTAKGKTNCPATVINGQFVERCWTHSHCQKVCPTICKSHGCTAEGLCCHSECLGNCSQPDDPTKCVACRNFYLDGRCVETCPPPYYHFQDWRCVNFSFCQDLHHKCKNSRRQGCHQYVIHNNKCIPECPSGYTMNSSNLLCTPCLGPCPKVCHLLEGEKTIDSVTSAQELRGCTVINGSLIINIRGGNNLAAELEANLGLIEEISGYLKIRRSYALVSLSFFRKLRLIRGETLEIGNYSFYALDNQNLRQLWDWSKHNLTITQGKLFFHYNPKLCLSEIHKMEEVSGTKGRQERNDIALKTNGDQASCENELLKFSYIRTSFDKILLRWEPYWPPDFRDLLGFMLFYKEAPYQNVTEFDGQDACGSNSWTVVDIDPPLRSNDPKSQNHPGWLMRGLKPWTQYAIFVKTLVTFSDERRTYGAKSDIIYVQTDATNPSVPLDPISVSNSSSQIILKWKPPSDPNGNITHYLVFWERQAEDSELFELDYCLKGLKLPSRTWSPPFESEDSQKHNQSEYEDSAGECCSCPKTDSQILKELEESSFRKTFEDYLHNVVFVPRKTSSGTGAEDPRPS
Sequence of Insulin receptor (P06213 763-1382 limits assumed): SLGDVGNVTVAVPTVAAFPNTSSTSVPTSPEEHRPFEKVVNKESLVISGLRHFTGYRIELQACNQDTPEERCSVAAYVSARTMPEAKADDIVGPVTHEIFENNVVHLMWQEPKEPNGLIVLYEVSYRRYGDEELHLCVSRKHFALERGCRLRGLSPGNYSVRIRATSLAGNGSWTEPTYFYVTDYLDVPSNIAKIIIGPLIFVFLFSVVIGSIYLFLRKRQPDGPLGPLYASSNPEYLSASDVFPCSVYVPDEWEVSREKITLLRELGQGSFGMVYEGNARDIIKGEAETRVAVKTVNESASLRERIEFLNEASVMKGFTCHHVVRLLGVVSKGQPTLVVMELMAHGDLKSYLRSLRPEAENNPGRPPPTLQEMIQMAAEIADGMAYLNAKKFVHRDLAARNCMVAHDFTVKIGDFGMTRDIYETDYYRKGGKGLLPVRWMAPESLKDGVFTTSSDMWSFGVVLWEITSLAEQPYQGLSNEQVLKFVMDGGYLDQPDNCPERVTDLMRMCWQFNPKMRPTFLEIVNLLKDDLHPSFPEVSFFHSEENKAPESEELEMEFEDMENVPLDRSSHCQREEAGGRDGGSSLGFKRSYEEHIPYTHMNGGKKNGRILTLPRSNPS

[1] = molecular target: BMP-2-inducible protein kinase (Homo sapiens, UniProt Q9NSY1)
Sequence of BMP-2-inducible protein kinase (Q9NSY1 whole entry): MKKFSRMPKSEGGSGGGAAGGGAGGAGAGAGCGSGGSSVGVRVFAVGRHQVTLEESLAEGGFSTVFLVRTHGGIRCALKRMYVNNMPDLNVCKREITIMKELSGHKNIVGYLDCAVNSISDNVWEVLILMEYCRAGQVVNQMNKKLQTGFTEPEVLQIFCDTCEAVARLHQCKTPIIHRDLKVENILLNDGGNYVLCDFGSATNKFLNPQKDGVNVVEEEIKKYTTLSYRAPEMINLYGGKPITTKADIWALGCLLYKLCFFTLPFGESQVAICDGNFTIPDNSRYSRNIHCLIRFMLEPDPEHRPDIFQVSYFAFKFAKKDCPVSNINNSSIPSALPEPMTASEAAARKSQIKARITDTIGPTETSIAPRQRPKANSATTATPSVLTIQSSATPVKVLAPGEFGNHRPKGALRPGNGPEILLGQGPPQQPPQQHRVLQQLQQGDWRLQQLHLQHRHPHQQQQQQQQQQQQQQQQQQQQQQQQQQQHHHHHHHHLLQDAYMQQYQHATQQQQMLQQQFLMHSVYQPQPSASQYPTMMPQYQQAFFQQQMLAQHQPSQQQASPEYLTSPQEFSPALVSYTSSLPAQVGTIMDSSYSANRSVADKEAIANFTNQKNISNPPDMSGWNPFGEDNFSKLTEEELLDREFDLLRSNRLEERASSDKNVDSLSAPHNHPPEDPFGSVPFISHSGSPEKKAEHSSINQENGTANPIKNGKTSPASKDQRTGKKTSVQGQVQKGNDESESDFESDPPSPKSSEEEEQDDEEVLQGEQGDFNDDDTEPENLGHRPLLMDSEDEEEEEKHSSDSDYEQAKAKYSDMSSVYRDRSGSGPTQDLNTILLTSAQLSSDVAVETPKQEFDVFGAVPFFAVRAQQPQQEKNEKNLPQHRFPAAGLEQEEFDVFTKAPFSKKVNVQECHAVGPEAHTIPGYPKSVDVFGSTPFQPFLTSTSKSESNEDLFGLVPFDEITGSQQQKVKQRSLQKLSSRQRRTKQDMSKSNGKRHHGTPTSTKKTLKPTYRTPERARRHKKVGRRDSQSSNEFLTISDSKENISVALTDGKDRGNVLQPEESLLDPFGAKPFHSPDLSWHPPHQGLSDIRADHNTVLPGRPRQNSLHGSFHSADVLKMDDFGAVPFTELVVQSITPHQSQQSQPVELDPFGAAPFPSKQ

[2] = molecular target: T2, STE20-related kinase adapter protein alpha (Homo sapiens, UniProt Q7RTN6)
T2 sequence (Q7RTN6 whole entry): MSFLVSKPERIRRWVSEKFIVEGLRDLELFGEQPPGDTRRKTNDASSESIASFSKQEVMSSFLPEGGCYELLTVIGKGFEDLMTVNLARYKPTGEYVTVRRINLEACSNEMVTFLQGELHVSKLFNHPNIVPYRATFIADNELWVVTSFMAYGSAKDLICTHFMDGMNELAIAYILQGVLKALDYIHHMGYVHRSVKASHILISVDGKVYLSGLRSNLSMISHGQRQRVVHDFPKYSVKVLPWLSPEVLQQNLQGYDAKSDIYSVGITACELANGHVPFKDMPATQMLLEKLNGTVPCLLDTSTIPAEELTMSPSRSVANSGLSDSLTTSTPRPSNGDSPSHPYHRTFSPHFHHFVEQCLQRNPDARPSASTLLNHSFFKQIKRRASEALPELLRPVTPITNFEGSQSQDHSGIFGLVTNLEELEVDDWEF

[3] = molecular target: Serine/threonine-protein kinase/endoribonuclease IRE1 (Homo sapiens, UniProt O75460)
Sequence of Serine/threonine-protein kinase/endoribonuclease IRE1 (O75460 whole entry): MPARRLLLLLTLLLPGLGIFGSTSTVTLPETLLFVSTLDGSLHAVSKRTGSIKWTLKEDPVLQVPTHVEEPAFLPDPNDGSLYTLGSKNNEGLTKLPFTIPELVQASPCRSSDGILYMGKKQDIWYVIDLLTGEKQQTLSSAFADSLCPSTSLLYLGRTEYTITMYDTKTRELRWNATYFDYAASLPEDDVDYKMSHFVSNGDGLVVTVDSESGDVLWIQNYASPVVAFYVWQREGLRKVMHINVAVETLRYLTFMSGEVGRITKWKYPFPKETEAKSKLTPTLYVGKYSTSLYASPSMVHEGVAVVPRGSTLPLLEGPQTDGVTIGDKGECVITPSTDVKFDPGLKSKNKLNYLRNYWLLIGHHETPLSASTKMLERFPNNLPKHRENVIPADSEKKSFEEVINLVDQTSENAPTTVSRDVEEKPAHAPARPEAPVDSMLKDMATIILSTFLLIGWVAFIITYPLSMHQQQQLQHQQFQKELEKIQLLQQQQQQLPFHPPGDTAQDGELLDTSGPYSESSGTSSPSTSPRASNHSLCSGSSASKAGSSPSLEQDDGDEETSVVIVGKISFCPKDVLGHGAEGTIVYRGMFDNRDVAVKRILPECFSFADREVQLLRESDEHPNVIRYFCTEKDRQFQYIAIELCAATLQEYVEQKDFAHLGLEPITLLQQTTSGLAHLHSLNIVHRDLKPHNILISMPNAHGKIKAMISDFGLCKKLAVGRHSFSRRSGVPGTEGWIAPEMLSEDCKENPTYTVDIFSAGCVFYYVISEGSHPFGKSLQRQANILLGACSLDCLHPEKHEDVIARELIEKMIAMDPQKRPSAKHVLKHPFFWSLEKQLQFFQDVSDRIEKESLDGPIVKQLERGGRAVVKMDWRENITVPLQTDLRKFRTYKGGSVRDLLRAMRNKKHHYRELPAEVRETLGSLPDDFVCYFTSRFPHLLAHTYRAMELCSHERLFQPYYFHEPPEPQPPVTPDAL

[4] = molecular target: T3, Ribosyldihydronicotinamide dehydrogenase [quinone] (Homo sapiens, UniProt P16083)
T3 sequence (P16083 whole entry): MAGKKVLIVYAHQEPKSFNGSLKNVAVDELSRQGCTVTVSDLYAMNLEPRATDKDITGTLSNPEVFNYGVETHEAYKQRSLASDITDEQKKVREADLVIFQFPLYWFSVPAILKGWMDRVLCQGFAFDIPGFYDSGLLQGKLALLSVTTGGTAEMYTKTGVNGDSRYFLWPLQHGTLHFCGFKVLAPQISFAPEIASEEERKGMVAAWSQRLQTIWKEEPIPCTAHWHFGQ

[5] = molecular target: Tyrosine-protein kinase Lyn (Homo sapiens, UniProt P07948)
Sequence of Tyrosine-protein kinase Lyn (P07948 whole entry): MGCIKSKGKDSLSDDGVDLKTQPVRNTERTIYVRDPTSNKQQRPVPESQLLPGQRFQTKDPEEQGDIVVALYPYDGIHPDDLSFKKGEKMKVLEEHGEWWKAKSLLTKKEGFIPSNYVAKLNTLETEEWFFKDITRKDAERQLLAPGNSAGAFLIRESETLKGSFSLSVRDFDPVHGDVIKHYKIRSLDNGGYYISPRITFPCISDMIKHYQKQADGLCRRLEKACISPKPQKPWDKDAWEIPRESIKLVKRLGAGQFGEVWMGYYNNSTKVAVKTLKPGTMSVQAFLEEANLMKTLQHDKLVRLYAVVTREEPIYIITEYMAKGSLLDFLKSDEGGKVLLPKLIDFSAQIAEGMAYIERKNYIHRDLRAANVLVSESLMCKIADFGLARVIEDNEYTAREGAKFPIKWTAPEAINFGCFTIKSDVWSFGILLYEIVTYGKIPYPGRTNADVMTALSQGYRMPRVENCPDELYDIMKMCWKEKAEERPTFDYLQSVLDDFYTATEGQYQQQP

[6] = molecular target: T4, Bone morphogenetic protein receptor type-2 (Homo sapiens, UniProt Q13873)
T4 sequence (Q13873 whole entry): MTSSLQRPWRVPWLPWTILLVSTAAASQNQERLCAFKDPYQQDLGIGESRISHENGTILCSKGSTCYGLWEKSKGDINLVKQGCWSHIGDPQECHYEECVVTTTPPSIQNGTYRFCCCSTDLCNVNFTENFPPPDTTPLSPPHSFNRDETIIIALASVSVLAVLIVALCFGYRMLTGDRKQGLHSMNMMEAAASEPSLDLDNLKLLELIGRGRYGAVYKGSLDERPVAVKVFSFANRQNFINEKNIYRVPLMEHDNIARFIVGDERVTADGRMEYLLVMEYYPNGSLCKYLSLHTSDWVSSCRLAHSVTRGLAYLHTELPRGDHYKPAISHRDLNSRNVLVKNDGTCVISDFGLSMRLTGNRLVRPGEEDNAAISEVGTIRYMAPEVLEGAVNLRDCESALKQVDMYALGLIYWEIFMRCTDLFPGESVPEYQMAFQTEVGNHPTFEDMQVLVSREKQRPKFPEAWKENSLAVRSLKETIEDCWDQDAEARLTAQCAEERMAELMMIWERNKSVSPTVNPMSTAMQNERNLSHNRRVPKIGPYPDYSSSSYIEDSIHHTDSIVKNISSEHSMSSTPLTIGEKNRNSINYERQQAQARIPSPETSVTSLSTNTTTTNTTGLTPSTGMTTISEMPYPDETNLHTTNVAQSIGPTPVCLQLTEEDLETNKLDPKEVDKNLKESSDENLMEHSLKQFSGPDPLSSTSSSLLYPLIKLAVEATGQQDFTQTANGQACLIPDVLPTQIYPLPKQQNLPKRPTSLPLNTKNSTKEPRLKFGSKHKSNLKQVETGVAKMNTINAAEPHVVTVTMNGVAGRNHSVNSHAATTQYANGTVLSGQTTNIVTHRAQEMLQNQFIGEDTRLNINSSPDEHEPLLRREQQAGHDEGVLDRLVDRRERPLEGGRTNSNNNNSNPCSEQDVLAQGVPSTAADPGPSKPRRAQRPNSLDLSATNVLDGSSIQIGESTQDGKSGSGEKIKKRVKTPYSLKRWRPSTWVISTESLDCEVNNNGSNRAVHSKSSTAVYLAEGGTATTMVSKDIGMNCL

[7] = molecular target: Dual specificity protein kinase CLK1 (Homo sapiens, UniProt P49759)
Sequence of Dual specificity protein kinase CLK1 (P49759 whole entry): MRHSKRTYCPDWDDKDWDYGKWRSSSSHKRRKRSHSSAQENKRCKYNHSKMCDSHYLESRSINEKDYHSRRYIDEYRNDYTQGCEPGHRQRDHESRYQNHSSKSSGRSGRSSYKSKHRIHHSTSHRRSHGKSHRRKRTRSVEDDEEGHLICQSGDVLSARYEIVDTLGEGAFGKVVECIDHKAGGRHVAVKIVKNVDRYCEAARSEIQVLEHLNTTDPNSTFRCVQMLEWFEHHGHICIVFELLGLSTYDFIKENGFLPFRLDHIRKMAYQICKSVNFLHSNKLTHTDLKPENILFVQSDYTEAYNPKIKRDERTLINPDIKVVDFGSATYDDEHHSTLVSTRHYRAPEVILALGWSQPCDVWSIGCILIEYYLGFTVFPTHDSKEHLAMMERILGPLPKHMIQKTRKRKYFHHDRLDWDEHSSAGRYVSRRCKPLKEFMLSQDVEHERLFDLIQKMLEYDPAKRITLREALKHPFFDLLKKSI
Also: in the data inactive means no Kd found up to 30 µM.

Structure (SMILES)	Kd (Glycine--tRNA ligase)	Kd (Insulin receptor)	Kd [1]	Kd [2]	Kd [3]	Kd [4]	Kd [5]	Kd [6]	Kd [7]
Cn1ncc(Cl)c1-c1cc(C(=O)N[C@H](CN)Cc2cccc(F)c2)sc1Cl [AFURESERTIB]	> 30 µM (inactive)	> 30 µM (inactive)	> 30 µM (inactive)	> 30 µM (inactive)	> 30 µM (inactive)	> 30 µM (inactive)	> 30 µM (inactive)	> 30 µM (inactive)	–
COC(=O)N[C@@H](C)CNc1nccc(-c2cn(C(C)C)nc2-c2cc(Cl)cc(NS(C)(=O)=O)c2F)n1 [ENCORAFENIB]	> 30 µM (inactive)	> 30 µM (inactive)	> 30 µM (inactive)	> 30 µM (inactive)	> 30 µM (inactive)	> 30 µM (inactive)	> 30 µM (inactive)	> 30 µM (inactive)	> 30 µM (inactive)
Cc1cc(-c2cc(O)ccc2Cl)cc2nnc(Nc3ccc(OCCN4CCCC4)cc3)nc12	> 30 µM (inactive)	> 30 µM (inactive)	> 30 µM (inactive)	> 30 µM (inactive)	> 30 µM (inactive)	> 30 µM (inactive)	> 30 µM (inactive)	0.003 µM (active)	> 30 µM (inactive)
CCCS(=O)(=O)Nc1ccc(F)c(C(=O)c2c[nH]c3ncc(-c4ccc(Cl)cc4)cc23)c1F [VEMURAFENIB]	> 30 µM (inactive)	> 30 µM (inactive)	> 30 µM (inactive)	> 30 µM (inactive)	> 30 µM (inactive)	> 30 µM (inactive)	> 30 µM (inactive)	> 30 µM (inactive)	> 30 µM (inactive)
CC[C@H](Nc1ncnc2[nH]cnc12)c1nc2cccc(F)c2c(=O)n1-c1ccccc1 [IDELALISIB]	> 30 µM (inactive)	> 30 µM (inactive)	> 30 µM (inactive)	> 30 µM (inactive)	> 30 µM (inactive)	> 30 µM (inactive)	> 30 µM (inactive)	> 30 µM (inactive)	> 30 µM (inactive)
CNS(=O)(=O)Nc1nccc(Cc2c(C)c3ccc(Oc4ncccn4)cc3oc2=O)c1F [AVUTOMETINIB]	> 30 µM (inactive)	> 30 µM (inactive)	> 30 µM (inactive)	> 30 µM (inactive)	> 30 µM (inactive)	> 30 µM (inactive)	> 30 µM (inactive)	> 30 µM (inactive)	> 30 µM (inactive)
Cc1cn(-c2cc(NC(=O)c3ccc(C)c(Nc4nccc(-c5cccnc5)n4)c3)cc(C(F)(F)F)c2)cn1 [NILOTINIB]	> 30 µM (inactive)	–	–	> 30 µM (inactive)	–	1.48 µM (active)	–	–	–
CN1N=C(N)c2cn([C@@H]3O[C@H](COP(=O)(O)O)[C@@H](O)[C@H]3O)c3ncnc1c23 [TRICIRIBINE PHOSPHATE]	> 30 µM (inactive)	> 30 µM (inactive)	> 30 µM (inactive)	–	> 30 µM (inactive)	> 30 µM (inactive)	> 30 µM (inactive)	> 30 µM (inactive)	–
O=C(Nc1cccc(Cl)c1)Nc1ncc(CCNc2ncnc3ccsc23)s1 [SNS-314]	> 30 µM (inactive)	–	> 30 µM (inactive)	> 30 µM (inactive)	–	> 30 µM (inactive)	> 30 µM (inactive)	> 30 µM (inactive)	> 30 µM (inactive)
C1=C/COCc2cc(ccc2OCCN2CCCC2)Nc2nccc(n2)-c2cccc(c2)COC/1 [PACRITINIB]	> 30 µM (inactive)	> 30 µM (inactive)	0.039 µM (active)	> 30 µM (inactive)	> 30 µM (inactive)	–	> 30 µM (inactive)	> 30 µM (inactive)	0.138 µM
CN1CCN(c2ccc3nc(-c4c(N)c5c(F)cccc5[nH]c4=O)[nH]c3c2)CC1 [DOVITINIB]	> 30 µM (inactive)	–	–	> 30 µM (inactive)	–	3.01 µM (active)	–	–	–
N[C@@H]1CCCN(c2c(/C=C3\SC(=O)NC3=O)cccc2-c2ccccc2)C1	> 30 µM (inactive)	> 30 µM (inactive)	> 30 µM (inactive)	> 30 µM (inactive)	> 30 µM (inactive)	> 30 µM (inactive)	> 30 µM (inactive)	> 30 µM (inactive)	–
Nc1nc(N)c2nc(-c3cccc(O)c3)c(-c3cccc(O)c3)nc2n1 [TG100-115]	> 30 µM (inactive)	–	–	> 30 µM (inactive)	–	> 30 µM (inactive)	–	–	–
CCS(=O)(=O)N1CC(CC#N)(n2cc(-c3ncnc4[nH]ccc34)cn2)C1 [BARICITINIB]	> 30 µM (inactive)	> 30 µM (inactive)	–	> 30 µM (inactive)	> 30 µM (inactive)	> 30 µM (inactive)	> 30 µM (inactive)	> 30 µM (inactive)	0.778 µM
COCCNCc1ccc(-c2cc3nccc(Oc4ccc(NC(=S)NC(=O)Cc5ccc(F)cc5)cc4F)c3s2)nc1 [GLESATINIB]	> 30 µM (inactive)	> 30 µM (inactive)	> 30 µM (inactive)	> 30 µM (inactive)	> 30 µM (inactive)	> 30 µM (inactive)	–	> 30 µM (inactive)	> 30 µM (inactive)

Other lines, results leading:

Kd (Glycine--tRNA ligase)	Kd (Insulin receptor)	Kd [1]	Kd [2]	Kd [3]	Kd [4]	Kd [5]	Kd [6]	Kd [7]	Structure (SMILES)
> 30 µM (inactive)	> 30 µM (inactive)	> 30 µM (inactive)	> 30 µM (inactive)	> 30 µM (inactive)	> 30 µM (inactive)	> 30 µM (inactive)	> 30 µM (inactive)	> 30 µM (inactive)	CCN1CCN(Cc2ccc(-c3cc4c(N[C@H](C)c5ccccc5)ncnc4[nH]3)cc2)CC1 [AEE-788]
> 30 µM (inactive)	–	0.007 µM (active)	> 30 µM (inactive)	> 30 µM (inactive)	0.648 µM (active)	–	–	0.586 µM (active)	Cc1nc(N)sc1-c1ccnc(Nc2ccc(N3CCOCC3)cc2)n1 [CYC-116]
> 30 µM (inactive)	–	1.49 µM (active)	> 30 µM (inactive)	> 30 µM (inactive)	> 30 µM (inactive)	> 30 µM (inactive)	–	–	Cc1cc(Nc2cc(N3CCN(C)CC3)nc(/C=C/c3ccccc3)n2)n[nH]1 [ENMD-2076]
> 30 µM (inactive)	–	–	> 30 µM (inactive)	–	> 30 µM (inactive)	–	–	–	CCn1c(-c2nonc2N)nc2c(C#CC(C)(C)O)ncc(OC[C@H]3CCCNC3)c21 [GSK-690693]
